# Data as given in article PMC10817493, “p-Terphenyl and Diphenyl Ether Derivatives from the Marine-Derived Fungus Aspergillus candidus HM5-4” (Marine Drugs, 2023).
# Tests used:
# [1] = test system: human non-small cell lung cancer cells (A549); test: Cytotoxic assay (modified MTT), A549; assay type: cell-based; settings: mean ± SD of three parallel experiments
# Method: (§1) All the compounds mentioned above were tested for their cytotoxic activities against human myeloid leukemia cells (K562), human liver cancer cells (BEL-7402), human gastric cancer cells (SGC-7901), human non-small cell lung cancer cells (A549) and human HeLa cervical cancer cells. […] Compared to the cytotoxic activity of 7, the cytotoxic activity of 5 was much stronger.
# (§2) All above-mentioned compounds were evaluated for their cytotoxicity in five human tumor cell lines: K562, BEL-7402, SGC-7901, A549 and HeLa cells which were bought from the Cell Bank of Type Culture Collection of the Shanghai Institute of Cell Biology, Chinese Academy of Sciences, using modified MTT methods. The details of this are described in our previous paper. The positive control was cisplatin.
# [2] = test system: human myeloid leukemia cells (K562); test: Cytotoxic assay (modified MTT), K562; assay type: cell-based; settings: mean ± SD of three parallel experiments
# Method: as §1, §2
# [3] = test system: human HeLa cervical cancer cells; test: Cytotoxic assay (modified MTT), HeLa; assay type: cell-based; settings: mean ± SD of three parallel experiments
# Method: as §1, §2
# [4] = test system: human liver cancer cells (BEL-7402); test: Cytotoxic assay (modified MTT), BEL-7402; assay type: cell-based; settings: mean ± SD of three parallel experiments
# Method: as §1, §2
# [5] = test system: human gastric cancer cells (SGC-7901); test: Cytotoxic assay (modified MTT), SGC-7901; assay type: cell-based; settings: mean ± SD of three parallel experiments
# Method: as §1, §2
# α-glucosidase = α-glucosidase (Saccharomyces cerevisiae, UniProt P53341); test: α-Glucosidase inhibition assay (PNPG substrate); assay type: biochemical
# Sequence of α-glucosidase (P53341 whole entry): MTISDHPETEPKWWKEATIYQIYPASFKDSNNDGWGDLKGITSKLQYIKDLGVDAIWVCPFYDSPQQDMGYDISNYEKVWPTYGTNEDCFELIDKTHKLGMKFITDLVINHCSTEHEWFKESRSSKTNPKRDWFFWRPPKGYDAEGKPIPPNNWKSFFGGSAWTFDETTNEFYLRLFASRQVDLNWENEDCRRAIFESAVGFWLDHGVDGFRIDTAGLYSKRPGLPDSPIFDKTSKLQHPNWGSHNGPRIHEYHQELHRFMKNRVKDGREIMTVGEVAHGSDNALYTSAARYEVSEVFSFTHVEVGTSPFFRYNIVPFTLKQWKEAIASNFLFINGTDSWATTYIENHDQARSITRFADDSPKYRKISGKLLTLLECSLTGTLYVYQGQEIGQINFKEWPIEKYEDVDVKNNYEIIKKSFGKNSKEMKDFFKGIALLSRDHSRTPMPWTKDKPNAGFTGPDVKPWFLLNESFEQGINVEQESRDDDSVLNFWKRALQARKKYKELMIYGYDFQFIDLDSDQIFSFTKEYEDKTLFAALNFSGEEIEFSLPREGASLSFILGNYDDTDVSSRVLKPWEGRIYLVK
# Method: All abovementioned compounds were measured for their inhibitory effects against α-glucosidase, using PNPG as the substrate. The enzyme inhibitory assay was carried out by a formerly described method, with some modifications. Compounds were dissolved in DMSO and six concentration gradients were set in turn. All the assays were performed in 0.1 M sodium phosphate buffer (PH = 6.8). The 10 μL sample was mixed with 100 μL α-glucosidase solution (0.2 U/mL, Sigma, Kanagawa, Japan) and shaken well, then added to a 96-well plate and incubated at 37 °C for 15 min. Subsequently, 40 μL of 2.5 mM 4-nitrophenyl-α-D-glucopyranoside was added and further incubated at 37 °C for 15 min. DMSO was used as a control and the blank wells contained buffer in place of substrate. The OD values were tested at 405 nm with a microplate reader. […] The percentage inhibition was calculated by the following equation:% inhibition = ((ODcontrol − ODsample)/(ODcontrol − ODblank)) × 100
# [6] = test system: K562, BEL-7402, SGC-7901, A549 and HeLa cells; test: Cytotoxic activity, summary over five human tumor cell lines; assay type: cell-based; settings: range over compounds 5 and 7 and K562, BEL-7402, SGC-7901, A549, HeLa, read-out: IC50 values, range over the five cancer cell lines
# Excerpt: Two undescribed p-terphenyl derivatives, asperterphenylcins A–B (1–2), and two undescribed diphenyl ether derivatives, asperdiphenylcins A–B (3–4), together with three previously described p-terphenyl derivatives—4″-deoxyterprenin (5), terphenyllin (6), and 3″-hydroxyterphenyllin (7)—were obtained from the solid-rice culture of the marine-derived fungus Aspergillus candidus HM5-4, which was isolated from sponges from the South China Sea. Their structures were elucidated by HRESIMS data and NMR spectroscopic analysis.
# as §2
# [7] = test system: Neoscytalidium dimidiatum; test: Antifungal activity, filter paper disc agar diffusion method; assay type: cell-based; settings: includes 6 mm disc, 10.0 µg/disc (carbendazim 10 μL, 1.0 mg/mL), mean ± SD, triplicate
# Method: The antifungal activities of three known compounds (5–7) were determined by the filter paper disc agar diffusion method.
# The inhibitory activities of some compounds against six phytopathogenic fungi (Fusarium oxysporum f. sp. cubense, Colletotrichum gloeosporioides, Thielaviopsis paradoxa, Bipolaris cactivora (Petrak) Alcorn, Neoscytalidium dimidiatum, and Colletotrichum scovillei) were evaluated using the filter paper disc agar diffusion method; 250 μL of the fungal solution was aspirated onto the corresponding solid medium and spread evenly with a cotton swab. Samples were dissolved in MeOH to prepare solutions of 1.0 mg/mL and 3.0 mg/mL concentrations. Carbendazim (10 μL, 1.0 mg/mL) was used as a positive control and MeOH (10 μL) was used as negative control. The diameter of the inhibition zones of the plates cultured at 37 °C for 24 h were measured including the 6 mm disc diameter. Experiments were performed in triplicate.
# [8] = Homo sapiens, Bel-7402, BEL-7402 cells
# [9] = Homo sapiens, SGC-7901, SGC-7901 cells
Structure (SMILES),"IC50 ([1]; Homo sapiens, A549, A549 cells)",IC50 ([2]; Homo sapiens),IC50 ([3]; Homo sapiens),"IC50 [4, 8]","IC50 [5, 9]",α-glucosidase inhibitory activity (in words) (α-glucosidase),IC50 [6] [µM],IC50 ([1]; A549 cells) [µM],IC50 [2] [µM],IC50 [3] [µM],IC50 ([4]; BEL-7402 cells) [µM],IC50 ([5]; SGC-7901 cells) [µM],diameter of inhibition zone against N. dimidiatum [7] [mm]
"COc1cccc2c1C(=O)OCc1cc(COC(C)=O)cc(O)c1O2 [Compound 3, Asperdiphenylcin A]",> 20 µg/mL,> 20 µg/mL,> 20 µg/mL,> 20 µg/mL,> 20 µg/mL,no α-glucosidase inhibitory activity,–,–,–,–,–,–,–
"COc1cc(-c2ccc(O)c(O)c2)c(OC)c(O)c1-c1ccc(O)cc1 [Compound 7, 3″-hydroxyterphenyllin]",–,34 ± 0.4 µM,53.6 ± 0.73 µM,–,–,–,3.32 to 60.4,–,–,–,–,–,–
"COc1cccc2c1C(=O)OCc1cc(C(=O)O)cc(O)c1O2 [Compound 4, Asperdiphenylcin B]",> 20 µg/mL,> 20 µg/mL,> 20 µg/mL,> 20 µg/mL,> 20 µg/mL,no α-glucosidase inhibitory activity,–,–,–,–,–,–,–
"COc1ccc(O)c(-c2c(OC)cc(-c3ccc(O)cc3)c(OC)c2O)c1 [Compound 1, Asperterphenylcin A]",> 20 µg/mL,> 20 µg/mL,> 20 µg/mL,> 20 µg/mL,> 20 µg/mL,–,–,–,–,–,–,–,–
"N.N.[Cl][Pt][Cl] [Cisplatin, cisplatin, reference compound]",–,–,–,–,–,–,–,1.93 ± 0.02,3.08 ± 0.05,11.3 ± 0.15,4.02 ± 0.06,4.11 ± 0.02,–
"COc1c(-c2ccc(O)cc2)cc(O)c(-c2ccc(O)cc2)c1OC [Compound 2, Asperterphenylcin B]",> 20 µg/mL,> 20 µg/mL,> 20 µg/mL,> 20 µg/mL,> 20 µg/mL,–,–,–,–,–,–,–,–
"COc1cc(-c2ccccc2)c(OC)c(O)c1-c1ccc(OCC=C(C)C)c(O)c1 [Compound 5, 4″-deoxyterprenin]",3.32 ± 0.1 µM,15.03 ± 0.14 µM,44.77 ± 0.13 µM,6.69 ± 0.12 µM,3.67 ± 0.17 µM,completely disappeared,3.32 to 60.4,–,–,–,–,–,31.67 ± 2.36
"COc1cc(-c2ccc(O)cc2)c(OC)c(O)c1-c1ccc(O)cc1 [Compound 6, terphenyllin]",> 20 µg/mL,> 20 µg/mL,> 20 µg/mL,> 20 µg/mL,> 20 µg/mL,–,–,–,–,–,–,–,–
"COC(=O)Nc1nc2ccccc2[nH]1 [Carbendazim, reference compound]",–,–,–,–,–,–,–,–,–,–,–,–,55.00 ± 0.82
